Data reported in the NIST ThermoML archive (doi:10.1021/je500381c).

Assay: refractive index (Na D-line) (dimensionless); xn = mol fraction of the nth substance listed
Settings: 100 kPa, Liquid, Standard Abbe refractometry

CCC12CC3CC(CC(C3)C1)C2 [1-ethyladamantane] + OCC1CCCCC1
refractive index
Settings | x2 = 0 | x2 = 0.1 | x2 = 0.2002 | x2 = 0.2997 | x2 = 0.3999 | x2 = 0.4998 | x2 = 0.5989 | x2 = 0.7001 | x2 = 0.8023 | x2 = 0.8996
293.15 K | 1.4927 | 1.4903 | 1.4877 | 1.4853 | 1.4828 | 1.4801 | 1.477 | 1.474 | 1.4708 | 1.4673
298.15 K | 1.4906 | 1.4883 | 1.4861 | 1.4835 | 1.4807 | 1.478 | 1.4754 | 1.4721 | 1.4689 | 1.4655
303.15 K | 1.4884 | 1.4861 | 1.4836 | 1.4812 | 1.4783 | 1.4757 | 1.4733 | 1.47 | 1.4668 | 1.4634
313.15 K | 1.4839 | 1.4816 | 1.4791 | 1.4768 | 1.4741 | 1.471 | 1.4687 | 1.4657 | 1.4623 | 1.4593
323.15 K | 1.4802 | 1.4775 | 1.4751 | 1.4725 | 1.4699 | 1.4672 | 1.4645 | 1.4616 | 1.4584 | 1.4553
333.15 K | 1.4759 | 1.4725 | 1.4703 | 1.4678 | 1.4652 | 1.4627 | 1.4599 | 1.4571 | 1.4541 | 1.451

CC12CC3CC(C1)CC(C)(C3)C2 [1,3-dimethyladamantane] + CCCCCCCO
refractive index
Settings | x2 = 0 | x2 = 0.1001 | x2 = 0.1997 | x2 = 0.2998 | x2 = 0.3997 | x2 = 0.4997 | x2 = 0.6002 | x2 = 0.7 | x2 = 0.7996 | x2 = 0.8999
293.15 K | 1.4776 | 1.4735 | 1.4696 | 1.4642 | 1.4591 | 1.4541 | 1.4483 | 1.4427 | 1.4365 | 1.4299
298.15 K | 1.4757 | 1.4714 | 1.4678 | 1.4624 | 1.4572 | 1.4519 | 1.4468 | 1.4411 | 1.4351 | 1.4282
303.15 K | 1.4734 | 1.4695 | 1.4654 | 1.4603 | 1.4551 | 1.4495 | 1.4442 | 1.4389 | 1.4333 | 1.4265
313.15 K | 1.4691 | 1.4646 | 1.4608 | 1.4558 | 1.4508 | 1.4457 | 1.4402 | 1.4347 | 1.4288 | 1.4223
323.15 K | 1.4651 | 1.4606 | 1.4567 | 1.4514 | 1.4464 | 1.4411 | 1.4359 | 1.4301 | 1.4244 | 1.4178
333.15 K | 1.461 | 1.4564 | 1.4527 | 1.4473 | 1.4422 | 1.437 | 1.4316 | 1.4262 | 1.4206 | 1.4141

CC12CC3CC(C)(C1)CC(C)(C3)C2 [1,3,5-trimethyladamantane] + CCCCCCCO
refractive index
Settings | x2 = 0 | x2 = 0.1001 | x2 = 0.2001 | x2 = 0.3002 | x2 = 0.4004 | x2 = 0.5001 | x2 = 0.6002 | x2 = 0.7001 | x2 = 0.7999 | x2 = 0.9002
293.15 K | 1.4736 | 1.4695 | 1.4657 | 1.4617 | 1.4573 | 1.4524 | 1.4476 | 1.4424 | 1.4366 | 1.4303
298.15 K | 1.4715 | 1.4677 | 1.4637 | 1.4597 | 1.4552 | 1.4504 | 1.4458 | 1.4405 | 1.4348 | 1.4286
303.15 K | 1.4695 | 1.4652 | 1.4614 | 1.4574 | 1.453 | 1.4484 | 1.4434 | 1.4382 | 1.4325 | 1.4262
313.15 K | 1.4649 | 1.4612 | 1.4571 | 1.453 | 1.4487 | 1.4438 | 1.4389 | 1.4341 | 1.4283 | 1.4224
323.15 K | 1.4612 | 1.4569 | 1.453 | 1.4489 | 1.4445 | 1.4398 | 1.435 | 1.4299 | 1.4244 | 1.4182
333.15 K | 1.4568 | 1.4526 | 1.4485 | 1.4444 | 1.4401 | 1.4354 | 1.4303 | 1.4255 | 1.4195 | 1.4138

CCC12CC3CC(CC(C3)C1)C2 [1-ethyladamantane] + CCCCCCCO
refractive index
Settings | x2 = 0 | x2 = 0.0999 | x2 = 0.1999 | x2 = 0.2988 | x2 = 0.3991 | x2 = 0.4998 | x2 = 0.5995 | x2 = 0.7 | x2 = 0.8002 | x2 = 0.9
293.15 K | 1.4927 | 1.4869 | 1.4809 | 1.4746 | 1.4682 | 1.461 | 1.4546 | 1.4473 | 1.4397 | 1.4316
298.15 K | 1.4906 | 1.4847 | 1.4785 | 1.4725 | 1.466 | 1.4594 | 1.4522 | 1.4451 | 1.4376 | 1.4298
303.15 K | 1.4884 | 1.4827 | 1.4768 | 1.4704 | 1.464 | 1.4573 | 1.4499 | 1.4433 | 1.4359 | 1.4278
313.15 K | 1.4839 | 1.4782 | 1.4722 | 1.466 | 1.4596 | 1.4528 | 1.4462 | 1.4389 | 1.4316 | 1.4236
323.15 K | 1.4802 | 1.474 | 1.468 | 1.4618 | 1.4554 | 1.4486 | 1.4419 | 1.4349 | 1.4273 | 1.4198
333.15 K | 1.4759 | 1.4697 | 1.4635 | 1.4577 | 1.451 | 1.4443 | 1.4373 | 1.4305 | 1.423 | 1.4156

OCC1CCCCC1 [cyclohexylmethanol] + CC12CC3CC(C1)CC(C)(C3)C2
refractive index
Settings | x1 = 0.1002 | x1 = 0.1995 | x1 = 0.2996 | x1 = 0.4004 | x1 = 0.4973 | x1 = 0.6008 | x1 = 0.7002 | x1 = 0.7999 | x1 = 0.9 | x1 = 1
293.15 K | 1.4759 | 1.4754 | 1.4742 | 1.4732 | 1.4719 | 1.4705 | 1.4692 | 1.4673 | 1.4655 | 1.4629
298.15 K | 1.4738 | 1.4734 | 1.4722 | 1.4709 | 1.4698 | 1.4688 | 1.467 | 1.4653 | 1.4638 | 1.4612
303.15 K | 1.4716 | 1.4712 | 1.47 | 1.4689 | 1.4679 | 1.4664 | 1.4651 | 1.4635 | 1.4617 | 1.4592
313.15 K | 1.4673 | 1.4669 | 1.4656 | 1.4645 | 1.4633 | 1.462 | 1.4607 | 1.4584 | 1.4571 | 1.455
323.15 K | 1.4626 | 1.4623 | 1.461 | 1.4602 | 1.459 | 1.4575 | 1.4564 | 1.4548 | 1.4535 | 1.4507
333.15 K | 1.4583 | 1.4578 | 1.4565 | 1.4554 | 1.4544 | 1.4529 | 1.4514 | 1.45 | 1.4488 | 1.4463

CC12CC3CC(C)(C1)CC(C)(C3)C2 [1,3,5-trimethyladamantane] + OCC1CCCCC1
refractive index
Settings | x2 = 0 | x2 = 0.1 | x2 = 0.2001 | x2 = 0.2997 | x2 = 0.4 | x2 = 0.4994 | x2 = 0.5991 | x2 = 0.7 | x2 = 0.801 | x2 = 0.8927
293.15 K | 1.4736 | 1.4727 | 1.4718 | 1.4711 | 1.4703 | 1.4694 | 1.4684 | 1.4673 | 1.4661 | 1.465
298.15 K | 1.4715 | 1.4708 | 1.47 | 1.4691 | 1.4681 | 1.4672 | 1.4663 | 1.4655 | 1.4641 | 1.4631
303.15 K | 1.4695 | 1.4686 | 1.4676 | 1.4669 | 1.4659 | 1.465 | 1.4643 | 1.4632 | 1.4621 | 1.4609
313.15 K | 1.4649 | 1.4641 | 1.4633 | 1.4625 | 1.4618 | 1.4608 | 1.46 | 1.459 | 1.458 | 1.4568
323.15 K | 1.4612 | 1.46 | 1.4589 | 1.4582 | 1.4573 | 1.4565 | 1.4556 | 1.4549 | 1.4539 | 1.4528
333.15 K | 1.4568 | 1.4552 | 1.4545 | 1.4538 | 1.453 | 1.4522 | 1.4513 | 1.4504 | 1.4492 | 1.4486
